The assay deals with CB1 (mutant) (Homo sapiens, UniProt P21554). Put plainly: R-SAT functional receptor assay, CB1 (mutant, truncated after amino acid 417). To be noted: R-SAT CB1; for IC50: receptor form (mutant or wild-type) not stated; for Emax / % Inhibition: receptor form not stated, relative to SR141716 (100%). The assay is classed as cell-based.
Setting [1] is: Appendix A, read-out: pIC50 (converted).
Setting [2] is: Appendix A, read-out: % Inhibition.

Each structure is given as a SMILES string. Where two headings read alike, the source gives them in different places.

Results on 62 compounds are retold here after patent publication US20080090805A1, “CB-1 MODULATING COMPOUNDS AND THEIR USE” (ACADIA PHARMACEUTICALS INC., priority 2005, published 2008).

CB1 (mutant), sequence (P21554 1-417, change not shown): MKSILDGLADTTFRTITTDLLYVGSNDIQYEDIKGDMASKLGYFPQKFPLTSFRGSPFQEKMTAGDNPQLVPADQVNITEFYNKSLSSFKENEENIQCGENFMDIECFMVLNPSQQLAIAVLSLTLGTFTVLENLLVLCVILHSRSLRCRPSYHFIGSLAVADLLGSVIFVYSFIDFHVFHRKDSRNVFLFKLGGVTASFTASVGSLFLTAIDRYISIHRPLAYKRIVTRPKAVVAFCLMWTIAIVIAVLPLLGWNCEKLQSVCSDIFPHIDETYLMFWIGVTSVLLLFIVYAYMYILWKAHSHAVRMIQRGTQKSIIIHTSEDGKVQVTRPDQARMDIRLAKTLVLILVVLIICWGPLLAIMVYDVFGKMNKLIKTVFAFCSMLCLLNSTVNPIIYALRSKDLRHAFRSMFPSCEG

For `CC(CNC(=O)c1ccc2c(c1)N=C(C1CCCCC1)c1ccccc1S2)c1ccccc1` (stereo not drawn) [drawing 783], the IC50 under setting [1] was 10 nM. Under setting [2], the Emax was 100%.

Regarding `CCCCNC(=O)c1ccc2c(c1)N=C(c1ccc(Cl)cc1)c1ccc(F)cc1S2` [drawing 985], the IC50 under setting [1] was 25.1 nM. Further, the Emax under setting [2] amounted to 109%.

Regarding `Cc1ccc(N2CCN(C(=O)c3ccc4c(c3)N=C(C3CCCCC3)c3ccccc3S4)CC2)c(C)c1` [drawing 896], the IC50 under setting [1] is 200 nM. Further, the Emax under setting [2] was determined as 103%.

On to `O=C(NCc1ccccc1Cl)c1ccc2c(c1)N=C(N1CCCCC1)c1ccccc1S2` [drawing 1013], for which, under setting [1], the IC50 is 25.1 nM. For the same compound, the Emax under setting [2] stood at 117%.

As to `O=C(NC1CCCCC1)c1ccc2c(c1)N=C(c1cccc(Cl)c1)c1ccccc1S2` [drawing 843], the IC50 under setting [1] was 12.6 nM. For the same compound, the Emax under setting [2] is 99%.

In the case of `CCCNC(=O)c1ccc2c(c1)N=C(c1ncccc1C)c1ccccc1S2`, the IC50 under setting [1] was 501 nM. Moreover, under setting [2], the Emax worked out at 63%.

The term % Inhibition denotes the relative decrease from the control value, in per cent. Low readings indicate little suppression, high ones strong suppression. Regarding `O=C(NN1CCCCC1)c1ccc2c(c1)N=C(c1ccc(F)cc1)c1ccccc1S2` [drawing 845], the “% Inhibition” value (Appendix A) worked out at 97%.

With `O=C(NN1CCCCCC1)c1ccc2c(c1)N=C(c1sccc1Cl)c1ccccc1S2`, the Emax under setting [2] worked out at 82%. Under “pIC50, Appendix A”, this compound gave an IC50 of 20 nM.

Regarding `O=C(NCc1ccc(F)cc1)c1ccc2c(c1)N=C(c1cccc(Cl)c1)c1ccccc1S2` [drawing 715], the Emax under setting [2] came out at 97%. This compound also had an IC50 (pIC50, Appendix A) of 7.94 nM.

For the compound `O=C(NN1CCCCC1)c1ccc2c(c1)N=C(c1ccc(F)cc1)c1ccccc1S2` [drawing 680], the Emax under setting [2] was 84%.

With `O=C(NCc1cccc(Cl)c1)c1ccc2c(c1)N=C(c1ccc(F)cc1)c1ccccc1S2(=O)=O` [drawing 833], the IC50 under setting [1] was 12.6 nM. For the same compound, under setting [2], the Emax was 108%.

Consider `Cc1csc(CNC(=O)c2ccc3c(c2)N=C(c2sccc2C)c2ccccc2S3)c1` [drawing 661], for which the IC50 under setting [1] is 6.31 nM. Further, the Emax under setting [2] is 102%.

`CCCC1=Nc2cc(C(=O)NCC3CCCN3CC)ccc2Sc2ccccc21` (stereo not drawn): the IC50 under setting [1] is 1580 nM. The Emax under setting [2] was determined as 133%.

`CCCCN(C)C(=O)c1ccc2c(c1)N=C(c1sccc1C)c1ccccc1S2`: the IC50 under setting [1] is 158 nM. Moreover, the Emax under setting [2] worked out at 72%.

As for `O=C(NC1CCCCC1)c1ccc2c(c1)N=C(c1ccccc1F)c1ccccc1S2` [drawing 740], the IC50 under setting [1] is 79.4 nM. Also, the Emax under setting [2] is 109%.

Consider `CCOCCNC(=O)c1ccc2c(c1)N=C(NCc1ccc(Cl)cc1)c1ccccc1S2`, for which the Emax under setting [2] worked out at 1%.

On to `CONC(=O)c1ccc2c(c1)N=C(c1ccc(Br)cc1)c1ccccc1S2`, for which the IC50 under setting [1] was 794 nM. In addition, under setting [2], the Emax turned out to be 68%.

For the compound `O=C(NCc1ccc(F)cc1)c1ccc2c(c1)N=C(C1CCCCC1)c1ccccc1S2(=O)=O` [drawing 917], under setting [1], the IC50 was 15.8 nM. In addition, under setting [2], the Emax was determined as 120%.

Turning to `O=C(NCc1cccnc1)c1ccc2c(c1)N=C(c1ccc(Cl)c(Cl)c1)c1ccccc1S2` [drawing 669], the IC50 under setting [1] was 6.31 nM. Moreover, the Emax under setting [2] was found to be 107%.

`O=C(NCc1cccc(Cl)c1)c1ccc2c(c1)N=C(C1CCCCC1)c1ccccc1S2` [drawing 637]: the IC50 under setting [1] is 5.01 nM. The Emax under setting [2] worked out at 112%.

On to `O=C(NN1CCCCC1)c1ccc2c(c1)N=C(C1CCCCC1)c1ccccc1C2`, for which, under setting [2], the Emax was 87%.

For the compound `CCCCNC(=O)c1ccc2c(c1)N=C(c1ccc(Cl)s1)c1cc(Cl)ccc1S2` [drawing 995], the IC50 under setting [1] is 25.1 nM. The Emax under setting [2] amounted to 107%.

Take `CCCC1=Nc2cc(C(=O)NC3CCCC(C)C3C)ccc2Sc2ccccc21` (stereo not drawn) [drawing 1115]: the Emax under setting [2] turned out to be 101%. In addition, for the setting “pIC50, Appendix A”, the IC50 was 39.8 nM.

Take `O=C(NN1CCCCC1)c1ccc2c(c1)N=C(C1CCCCC1)c1ccccc1S2` [drawing 861]: the “% Inhibition” value (Appendix A) was found to be 100%.

For `CCCCNC(=O)c1ccc2c(c1)N=C(N1CCCCC1)c1ccccc1S2` [drawing 683], under setting [1], the IC50 is 6.31 nM. Besides, the Emax under setting [2] was 99%.

In the case of `CONC(=O)c1ccc2c(c1)N=C(c1ccc(Cl)s1)c1ccccc1S2`, the IC50 under setting [1] was 398 nM. Under setting [2], the Emax was 66%.

Turning to `CCCC1=Nc2cc(C(=O)NCCN3CCN(c4cccc(Cl)c4)CC3)ccc2Sc2ccccc21`, the Emax under setting [2] amounted to 76%.

Take `O=C(NN1CCOCC1)c1ccc2c(c1)N=C(N1CCCCC1)c1ccccc1S2`: the IC50 under setting [1] was 794 nM. For the same compound, under setting [2], the Emax turned out to be 99%.

Consider `CC(NC(=O)c1ccc2c(c1)N=C(c1cccc(Cl)c1)c1ccccc1S2)c1ccccc1` (stereo not drawn) [drawing 582], for which the IC50 under setting [1] was 50.1 nM. Besides, the Emax under setting [2] came out at 87%.

For `O=C(NN1CCCC1)c1ccc2c(c1)N=C(c1ccc(F)cc1)c1ccccc1S2`, the IC50 under setting [1] was 158 nM. Besides, under setting [2], the Emax came to 92%.

With `O=C(NN1CCCCC1)c1ccc2c(c1)N=C(C1CCCCC1)c1ccccc1S2` [drawing 744], for the setting “read-out: % Inhibition, Appendix A”, the Emax came out at 86%.

`CCN(CCNC(=O)c1ccc2c(c1)N=C(c1cccc(Cl)c1)c1ccccc1S2)c1ccccc1` [drawing 713]: the Emax under setting [2] turned out to be 97%. This compound showed an IC50 (pIC50, Appendix A) of 7.94 nM.

In the case of `O=C(NCc1cccc(Cl)c1)c1ccc2c(c1)N=C(N1CCCCC1)c1cc(F)ccc1S2` [drawing 649], the IC50 under setting [1] was 5.01 nM. The Emax under setting [2] is 107%.

Turning to `CCONC(=O)c1ccc2c(c1)N=C(c1ccc(Cl)cc1)c1ccccc1S2`, the IC50 under setting [1] is 63.1 nM. For the same compound, under setting [2], the Emax worked out at 91%.

Turning to `CCONC(=O)c1ccc2c(c1)N=C(c1cccc(Cl)c1)c1ccccc1S2`, the IC50 under setting [1] was 79.4 nM. The Emax under setting [2] turned out to be 90%.

As to `O=C(NCCc1cccnc1)c1ccc2c(c1)N=C(c1ccc(F)cc1)c1ccccc1S2` [drawing 1033], the IC50 under setting [1] is 25.1 nM. Further, the Emax under setting [2] worked out at 119%.

For `Cc1csc(CNC(=O)c2ccc3c(c2)N=C(c2ccc(Cl)s2)c2ccccc2S3)c1` [drawing 655], the IC50 under setting [1] was 6.31 nM. Under setting [2], the Emax came to 94%.

`CCOCCNC(=O)c1ccc2c(c1)N=C(c1ccc(F)cc1)c1ccccc1S2` [drawing 596]: the IC50 under setting [1] is 50.1 nM. The Emax under setting [2] was found to be 94%.

With `CCCNC(=O)c1ccc2c(c1)N=C(c1ccc(Cl)cc1)c1ccccc1S2` [drawing 799], the IC50 under setting [1] is 10 nM. Also, under setting [2], the Emax was 103%.

In the case of `Cc1cc(Cl)ccc1C1=Nc2cc(C(=O)NC3CCCCC3)ccc2Sc2ccccc21`, under setting [1], the IC50 is 251 nM. The Emax under setting [2] amounted to 83%.

On to `O=C(NCc1ccccc1Br)c1ccc2c(c1)N=C(c1ccccc1)c1ccccc1S2` [drawing 700], for which, under setting [1], the IC50 was 79.4 nM. Further, under setting [2], the Emax was found to be 83%.

With `O=C(NCCc1cccnc1)c1ccc2c(c1)N=C(c1ccc(Cl)c(Cl)c1)c1ccccc1S2` [drawing 825], the IC50 under setting [1] is 12.6 nM. The Emax under setting [2] stood at 104%.

With `O=C(NCc1ccncc1)c1ccc2c(c1)N=C(c1ccccc1Cl)c1ccccc1S2`, the IC50 under setting [1] was 794 nM. Moreover, under setting [2], the Emax came to 67%.

For the compound `CC(C)CCNC(=O)c1ccc2c(c1)N=C(c1cccc(F)c1)c1ccccc1S2` [drawing 671], the Emax under setting [2] is 100%. This compound showed an IC50 (pIC50, Appendix A) of 6.31 nM.

On to `CCCC1=Nc2cc(C(=O)N3CCN(C(=O)OCC)CC3)ccc2Sc2ccccc21`, for which the IC50 under setting [1] is 1000 nM. Under setting [2], the Emax was 77%.

As to `CCCCNC(=O)c1ccc2c(c1)N=C(c1cccc(Cl)c1)c1cc(Cl)ccc1S2` [drawing 997], the IC50 under setting [1] is 25.1 nM. Besides, under setting [2], the Emax turned out to be 110%.

With `O=C(NC1CCCCC1)c1ccc2c(c1)N=C(c1cccc(F)c1)c1ccccc1S2` [drawing 941], the IC50 under setting [1] is 20 nM. Moreover, the Emax under setting [2] is 127%.

Consider `CCN(CCNC(=O)c1ccc2c(c1)N=C(C1CCCCC1)c1ccccc1S2)c1ccccc1` [drawing 865], for which the IC50 under setting [1] was 15.8 nM. Under setting [2], the Emax was 105%.

Turning to `CCCC1=Nc2cc(C(=O)N3CCN(Cc4ccc5c(c4)OCO5)CC3)ccc2Sc2ccccc21`, under setting [2], the Emax was determined as 96%.

On to `CCCNC(=O)c1ccc2c(c1)N=C(c1ccc(Cl)s1)c1ccccc1S2` [drawing 675], for which the IC50 under setting [1] is 6.31 nM. Also, under setting [2], the Emax turned out to be 88%.

As for `O=C(NCc1ccccn1)c1ccc2c(c1)N=C(c1ccc(Cl)cc1)c1ccccc1S2` [drawing 1157], under setting [1], the IC50 was 39.8 nM. Moreover, under setting [2], the Emax came to 125%.

`Cc1ccsc1C1=Nc2cc(C(=O)NC3CCCCC3)ccc2Sc2ccccc21` [drawing 572]: the IC50 under setting [1] was 50.1 nM. Further, the Emax under setting [2] was 88%.

As for `O=C(NN1CCCCC1)c1ccc2c(c1)N=C(N1CCOCC1)c1ccccc1S2`, the Emax under setting [2] amounted to 76%.

`CC(C)CNC(=O)c1ccc2c(c1)N=C(c1ccc(Cl)cc1)c1ccccc1S2` [drawing 741]: the Emax under setting [2] is 123%. Also, where the note is “pIC50, Appendix A”, the IC50 was 7.94 nM.

For `CCOC(=O)N1CCC(NC(=O)c2ccc3c(c2)N=C(C2CCCCC2)c2ccccc2S3)CC1` [drawing 814], the Emax under setting [2] turned out to be 95%.

For the compound `CCCCC1=Nc2cc(C(=O)NC)ccc2Sc2ccccc21`, under setting [1], the IC50 was 50.1 nM. Besides, the Emax under setting [2] came out at 55%.

Turning to `CCCC1=Nc2cc(C(=O)NC(C)CCc3ccccc3)ccc2Sc2ccccc21` (stereo not drawn), under setting [1], the IC50 is 39.8 nM. Besides, the Emax under setting [2] is 95%.

Take `O=C(NCc1ccc(Cl)cc1Cl)c1ccc2c(c1)N=C(c1ccccc1)c1ccccc1S2` [drawing 1167]: the IC50 under setting [1] was 39.8 nM. Moreover, the Emax under setting [2] was determined as 91%.

With `CCCC1=Nc2cc(C(=O)NCc3ccc(OC)cc3)ccc2Sc2ccccc21`, the Emax under setting [2] was 96%. Under “pIC50, Appendix A”, this compound gave an IC50 of 25.1 nM.

`CCCNC(=O)c1ccc2c(c1)N=C(CCC)c1ccccc1S2`: the IC50 under setting [1] was 31.6 nM. Further, the Emax under setting [2] was determined as 95%.

`CCCNC(=O)c1ccc2c(c1)N=C(c1ccc(OC)cc1)c1ccccc1S2` [drawing 915]: under setting [1], the IC50 is 15.8 nM. Besides, the Emax under setting [2] worked out at 112%.

For the compound `CCCC1=Nc2cc(C(=O)NCC(OCC)OCC)ccc2Sc2ccccc21`, under setting [1], the IC50 was 39.8 nM. In addition, the Emax under setting [2] was 107%.
